Here are results for three compounds from patent publication US7217821B2, “Photoprotective cosmetic compositions comprising para-aminobenzalmalonate-substituted s-triazine compounds” (L'Oreal, priority 2003, dated 2007).

Several values for one entry are separate records, joined by “and”; a condition that tells them apart may be missing. Identical values can stand only once.

Data set [1] can be described thus: Photostability of a film of oily solution under an Oriel sun simulator, quantified by HPLC. The class given is physicochemical. Conditions: 5% by weight in Miglyol 812 oil; about 1 mg/cm^2 film; irradiated one hour, UVA=14.2 mW/cm^2, UVB=0.41 mW/cm^2; individual tests. As to the method: Compared photostabilities between a compound of the prior art and the compound according to the invention of Example 1:
The two products were dissolved at 5% by weight in Miglyol 812 oil. About 10 mg of oily solution are spread over 10 cm^2 onto the surface of a frosted-glass hollow disc; the amount is determined by weighing.
The films of oily solutions are irradiated for one hour using an Oriel sun simulator (UVA=14.2 mW/cm^2; UVB=0.41 mW/cm^2), and then extracted with 10 ml of ethanol containing 10% isopropanol and treated with ultrasound for 5 minutes. The quantifications of the products are performed by HPLC of the extracts.
HPLC conditions: column: UP5WOD-25QS, 250*4.6 mm, 5 μm, Interchrom; eluent: methanol (Comparative Example 1) and 96% methanol+4% water (Example 1); flow rate: 1 ml/minute; injected volume: 10 μl; detection: diode array; rt (minutes): 5.2 (Comparative Example 1) and 14.9 (Example 1).
The degrees of loss are determined by comparison of the amounts of product present in the irradiated samples and in the non-irradiated controls prepared simultaneously and treated in the same manner (average of 3 samples; S=surface area/mg solution): % loss=100*(S0-Sirr)/S0

Another data set can be described thus: UV absorption in ethanol. The class given is physicochemical.

On to `CC(C)COC(=O)C(=Cc1ccc(Nc2nc(Nc3ccc(C=C(C(=O)OCC(C)C)C(=O)OCC(C)C)cc3)nc(Nc3ccc(C=C(C(=O)OCC(C)C)C(=O)OCC(C)C)cc3)n2)cc1)C(=O)OCC(C)C` [Compound (prior art), 2,4,6-tris(Diisobutyl 4′-aminobenzalmalonate)-s-triazine, reference compound], for which the “% disappearance” value in data set [1] is 11% and 10% and 9%.
On to `CC(C)CC(C)OC(=O)C(=Cc1ccc(Nc2nc(Nc3ccc(C=C(C(=O)OC(C)CC(C)C)C(=O)OC(C)CC(C)C)cc3)nc(Nc3ccc(C=C(C(=O)OC(C)CC(C)C)C(=O)OC(C)CC(C)C)cc3)n2)cc1)C(=O)OC(C)CC(C)C` (centres unmarked) [Example 2, 2,4,6-tris(bis(1,3-dimethylbutyl) 4′-aminobenzalmalonate)-s-triazine], for which, in “UV absorption in ethanol”, the “UV E1%” value is listed as 922, the UV εmax is 111000 M⁻¹ cm⁻¹ and the “UV λmax” value worked out at 353 nm.
In the case of `CC(C)(C)COC(=O)C(=Cc1ccc(Nc2nc(Nc3ccc(C=C(C(=O)OCC(C)(C)C)C(=O)OCC(C)(C)C)cc3)nc(Nc3ccc(C=C(C(=O)OCC(C)(C)C)C(=O)OCC(C)(C)C)cc3)n2)cc1)C(=O)OCC(C)(C)C` [Example 1, 2,4,6-tris(dineopentyl 4′-aminobenzalmalonate)-s-triazine], the “% disappearance” value in data set [1] is 3% and 5% and 4%. Further, in “UV absorption in ethanol”, the “UV E1%” value worked out at 956, the UV εmax is 110000 M⁻¹ cm⁻¹ and the “UV λmax” value is reported as 356 nm.
